Source: patent US12534501B2, “Targeting deregulated Wnt signaling in cancer using stabilized alpha-helices of BCL-9” (Dana-Farber Cancer Institute, Inc., priority 2011, dated 2026)
Numbered stars: 1 amine (or outer) side, 2 acyl side, 3 side chain; on linkers, the order of the positions; unused ones are H or OH. Bridge positions count the residues as written; N and C are the ends. Square brackets hold non-standard residues; d marks the D form. Peptide text beside a SMILES is read from it. ξ: configuration not given here. ξαMeNle(6-ylidene) = CC(CCCC=[*:3])(N[*:1])C(=O)[*:2]; Nle = CCCC[C@H](N)C(=O)O

What was measured:
[1] = test system: CRC cell lines expressing BCL9; assay: Cell proliferation of cultured colon cancer cells; format: cell-based
Procedure: (§1) Cell proliferation assays were performed as described (Sukhdeo, K. et al. Proc Natl Acad Sci USA 104, 7516-21 (2007)). Cell viability was measured using the CellTiter-Glo assay (Promega) according to the manufacturer's instructions. Apoptosis was evaluated by activated caspase-3 and PARP western blotting. See results in FIG. 3A-FIG. 3F, FIG. 13, and FIG. 20.

[2] = test system: LS174T cell line; assay: Cell proliferation of cultured colon cancer cells; format: cell-based; conditions: does not express BCL9
Procedure: as §1

[3] = test system: HCT116, HCT116DO20 and HCT116KO58 cells; assay: Cell proliferation of cultured colon cancer cells; format: cell-based; conditions: HCT116 and derivatives, not dependent on Wnt/β-catenin activity
Procedure: as §1

[4] = test system: GFP-positive Colo320 cells in NOD/SCID mice; assay: Colo320 intraperitoneal xenograft model; format: in vivo
Procedure: To explore the therapeutic potential of targeting the BCL9/β-catenin interaction, the capacity of SAH-BCL9B to suppress tumor growth was examined in vivo. GFP-expressing Colo320 cells (1×10^6) were injected into the peritoneum of sublethally irradiated NOD/SCID mice. Two days after cellular injection, mouse cohorts (n=6) were treated with vehicle (2.5% DMSO in D5W), SAH-BCL9B, or SAH-BCL9B(R359E) peptides (20 mg/kg) for a total of 6 doses administered intraperitoneally every other day. On day 40 of the experiment, mice were sacrificed and evaluated for tumor burden and metastasis by whole body imaging and histologic examination of harvested GFP-positive tissues. […] Importantly, no histologic changes in normal murine tissues were observed across the treatment groups upon necropsy.
GFP-positive Colo320 cells were generated as previously reported (Mani, M. et al. Cancer Res 69, 7577-86 (2009)). Cells were pelleted, resuspended in sterile 1x PBS and injected intraperitoneally (1×10^6 cells/mouse) into 5-week-old sublethally irradiated NOD.CB17-PrkdcSCID/J mice (Jackson Laboratory) (n=6 per cohort). Two days after cellular inoculation, mice were treated by intraperitoneal injection with vehicle (2.5% DMSO in D5W) or SAH-BCL9 peptides (20 mg/kg) on alternate days for a total of 6 doses. Forty days after tumor cell injection, the mice were euthanized and GFP-positive tumor visualized using an ImageQuant LAS-4000 (GE Healthcare). Complete necropsies were performed for each experimental animal and livers were sectioned in their entirety at 5 mm intervals for quantitation of tumor metastases. Tissues were subjected to H&E staining and immunohistochemical analysis using anti-CD34 and anti-CD44 antibodies.

[5] = test system: Wnt target genes in Colo320 cells; assay: qPCR of Wnt/β-catenin target genes; format: cell-based
Procedure: RNA was extracted with TRIzol Reagent (Invitrogen) according to the manufacturer's protocol. Total RNA (2 μg) was reverse transcribed (SuperScript VILO cDNA synthesis kit, Invitrogen) and qPCR was performed using an Applied Biosynthesis 7500 Real-time PCR system. Analysis of target genes was conducted in quadruplicate using POWER SYBR Green Master Mix (Applied Biosystems) with previously described primer sets. Transcripts levels were normalized to β-actin expression. These experiments were repeated three times. See results in FIG. 2B, FIG. 2C.
To measure the effects of vehicle, SAH-BCL9B, and SAH-BCL9MUT on the expression of Wnt/β-catenin target genes, including VEGF, in Colo320 (FIG. 18) and MM1S (FIG. 19) cell lines, quantitative PCR (qRT-PCR) analysis was performed. RNA was extracted with TRIzol Reagent (Invitrogen) according to the manufacturer's protocol. Total RNA (2 μg) was reverse transcribed (SuperScript VILO cDNA synthesis kit, Invitrogen) and qPCR was performed using an Applied Biosynthesis 7500 Real-time PCR system. PCR primers were designed as below: […]
Analysis of target genes was conducted in quadruplicate using POWER SYBR Green Master Mix (Applied Biosystems) as previously described (M. Mani et al., Cancer Res 69, 7577 (2009)). Transcripts levels were normalized to β-actin expression. These experiments were repeated three times.

[6] = test system: MM1S cells; assay: Cell viability, CellTiter-Glo; format: cell-based; conditions: 72 h, 5 μM
Procedure: as §1

[7] = test system: Colo320 cells; assay: Cell viability, CellTiter-Glo; format: cell-based; conditions: 72 h, 5 μM
Procedure: as §1

[8] = test system: β-catenin/BCL9-driven transcription in HCT116 cells; assay: TOP-FLASH dual luciferase assay with pcDNA-BCL9 transfection; format: cell-based; conditions: HCT116, TOP-FLASH and pcDNA-BCL9, peptides 5 μM, 24 h
[9] = test system: VEGF secretion by MM1S cells; assay: VEGF ELISA; format: cell-based; conditions: 5 μM, 24 h
Procedure: (§2) VEGF ELISA was performed as previously described (Mani, M. et al. Cancer Res 69, 7577-86 (2009)). Briefly, cells (1×10^6) were treated with vehicle and SAH-BCL9 peptides (5 μM) for 24 h. VEGF levels in the supernatant were then measured according to the manufacturer's ELISA protocol (DuoSet, R&D Systems).

[10] = test system: VEGF secretion by Colo320 cells; assay: VEGF ELISA; format: cell-based; conditions: 5 μM, 24 h
Procedure: as §2

[11] = test system: MM1S cells; assay: Cell proliferation, [3H]thymidine uptake; format: cell-based; conditions: 5 μM
Procedure: as §1

[12] = test system: Colo320 cells; assay: Cell proliferation, [3H]thymidine uptake; format: cell-based; conditions: 5 μM, 24 h
Procedure: as §1

[13] = test system: caspase-3 or PARP; assay: Apoptosis by activated caspase-3 and PARP western blotting; format: cell-based; conditions: western analysis
Procedure: as §1

[14] = test system: INA-6 multiple myeloma cells; assay: Cell proliferation, thymidine incorporation; format: cell-based; conditions: 5 μM, 24 h, vs vehicle and SAH-BCL9B(R359E)
Procedure: as §1

[15] = 20 mg/kg i.p. every other day, 6 doses, day 40

SMILES: CCCC[C@H](NC(=O)[C@H](CCCNC(=N)N)NC(=O)[C@H](CCC(N)=O)NC(=O)[C@@H](NC(=O)C1(C)CCCC=CCCCC(C)(NC(=O)[C@H](CC(C)C)NC(=O)[C@H](CO)NC(=O)[C@H](CCCNC(=N)N)NC(=O)[C@H](CCC(=O)O)NC(=O)[C@H](CCCNC(=N)N)NC(=O)[C@H](Cc2c[nH]cn2)NC(=O)[C@H](CCC(=O)O)NC(=O)[C@H](CC(C)C)NC(=O)[C@H](CCC(N)=O)NC(=O)[C@H](CCC(=O)O)NC(=O)[C@H](CCC(N)=O)NC(=O)[C@H](CO)NC(=O)[C@H](CC(C)C)NC(C)=O)C(=O)N[C@@H]([C@@H](C)O)C(=O)N[C@@H](CC(C)C)C(=O)N[C@@H](CCCNC(=N)N)C(=O)N1)[C@@H](C)CC)C(=O)N[C@@H](CC(C)C)C(=O)N[C@@H](Cc1ccccc1)C(N)=O (stereo partly drawn) [SAH-BCL9B] (Ac-LSQEQLEHRERSL[ξαMeNle(6-ylidene)]TLR[ξαMeNle(6-ylidene)]IQR[Nle]LF-NH2; staple 14-18)
- proliferation [1]: significantly reduced the proliferation
- proliferation [2]: no response
- proliferation [3]: no sensitivity
- metastatic tumor nodules in the liver [4, 15]: overall reduction of metastatic tumor nodules
- tumor burden (overall tissue fluorescence, whole body imaging) [4, 15]: markedly reduced
- capillary CD34 immunoreactivity ([4]; 20 mg/kg i.p., 6 doses): less intense capillary CD34 immunoreactivity
- number of intratumoral blood vessels ([4]; 20 mg/kg i.p., 6 doses): reduction in the number of intratumoral blood vessels
- tumor cell CD44 immunoreactivity ([4]; 20 mg/kg i.p., 6 doses): decreased tumor cell CD44 immunoreactivity
- TUNEL positivity in colonic tumor tissue ([4]; NOD/SCID mice bearing intraperitoneal Colo320 cells): notably increased TUNEL positivity
- mRNA levels of VEGF, c-Myc, and Axin2 ([5]; qPCR): significantly reduced
- Actin expression (non-Wnt pathway target gene) ([5]; qRT-PCR, Colo320): no change
- mRNA levels of VEGF, c-MYC, LGR5, LEF1, and AXIN2 ([5]; qRT-PCR, Colo320 (FIG. 18A), normalized to β-actin): dose-responsively reduced
- viability [6]: no effect
- viability [7]: no effect
- suppression of reporter activity on increasing BCL9 expression [8]: dose-responsively reversed
- VEGF secretion [9]: decreased VEGF secretion
- VEGF secretion [10]: decreased VEGF secretion
- proliferation [11]: reduced the proliferation
- proliferation [12]: reduced the proliferation
- caspase-3 or PARP activation [13]: did not activate caspase-3 or PARP
- growth by thymidine incorporation [14]: significantly reduced growth
